Assay [1] concerns the target T1, T1R2 monomer (Homo sapiens, UniProt Q8TE23).
T1 construct: expressed in transfected cells; host or cells: HEK293T cells stably expressing G16gust44
T1 sequence (Q8TE23 20-839): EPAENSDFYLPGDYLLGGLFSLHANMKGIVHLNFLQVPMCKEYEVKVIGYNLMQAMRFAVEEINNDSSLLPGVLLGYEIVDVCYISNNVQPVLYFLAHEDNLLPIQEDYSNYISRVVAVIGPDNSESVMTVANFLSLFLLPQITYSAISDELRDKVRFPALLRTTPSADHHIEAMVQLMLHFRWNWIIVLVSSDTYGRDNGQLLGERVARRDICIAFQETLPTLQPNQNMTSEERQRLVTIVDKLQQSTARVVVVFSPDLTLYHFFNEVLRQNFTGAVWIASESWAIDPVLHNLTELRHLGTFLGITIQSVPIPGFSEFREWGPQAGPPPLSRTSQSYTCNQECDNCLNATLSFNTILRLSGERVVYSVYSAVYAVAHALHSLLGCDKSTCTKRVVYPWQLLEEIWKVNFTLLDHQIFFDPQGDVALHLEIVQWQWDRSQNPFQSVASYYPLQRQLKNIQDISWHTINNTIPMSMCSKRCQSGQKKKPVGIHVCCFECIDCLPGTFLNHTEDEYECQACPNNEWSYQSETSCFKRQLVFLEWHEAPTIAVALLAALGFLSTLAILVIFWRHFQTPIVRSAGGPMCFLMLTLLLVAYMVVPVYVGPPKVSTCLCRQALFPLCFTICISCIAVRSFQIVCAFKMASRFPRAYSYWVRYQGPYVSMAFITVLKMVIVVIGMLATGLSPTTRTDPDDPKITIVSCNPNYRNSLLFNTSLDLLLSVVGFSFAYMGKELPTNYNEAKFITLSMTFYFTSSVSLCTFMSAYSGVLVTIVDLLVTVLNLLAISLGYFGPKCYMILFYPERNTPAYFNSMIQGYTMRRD
The experiment in a line: Fluo-4 calcium assay, HEK293T/G16gust44 cells transiently transfected with T1R2 monomer. In kind it is cell-based. The source says: (§1) All examples use the human receptors.
(§2) HEK293 cells stably expressing G alpha 16-gustducin 44 and transfected as described in example 2, 3 or 4 were used as host cells.
(§3) To form a T1R2 vector construct, cDNA fragments containing the entire protein coding sequences for human T1R2 and T1R3 were isolated from a human fungiform cDNA library, fully sequenced and then subcloned into pcDNA3.1 (Invitrogen).

A further assay concerns the target T2, T1R2/T1R3 dimer (Homo sapiens, UniProt Q7RTX0+Q8TE23).
T2 construct: expressed in transfected cells; host or cells: HEK293T cells stably expressing G16gust44
T2 sequence (Q8TE23 20-839): T1 sequence (Q8TE23 20-839)
T2 sequence (Q7RTX0 21-852): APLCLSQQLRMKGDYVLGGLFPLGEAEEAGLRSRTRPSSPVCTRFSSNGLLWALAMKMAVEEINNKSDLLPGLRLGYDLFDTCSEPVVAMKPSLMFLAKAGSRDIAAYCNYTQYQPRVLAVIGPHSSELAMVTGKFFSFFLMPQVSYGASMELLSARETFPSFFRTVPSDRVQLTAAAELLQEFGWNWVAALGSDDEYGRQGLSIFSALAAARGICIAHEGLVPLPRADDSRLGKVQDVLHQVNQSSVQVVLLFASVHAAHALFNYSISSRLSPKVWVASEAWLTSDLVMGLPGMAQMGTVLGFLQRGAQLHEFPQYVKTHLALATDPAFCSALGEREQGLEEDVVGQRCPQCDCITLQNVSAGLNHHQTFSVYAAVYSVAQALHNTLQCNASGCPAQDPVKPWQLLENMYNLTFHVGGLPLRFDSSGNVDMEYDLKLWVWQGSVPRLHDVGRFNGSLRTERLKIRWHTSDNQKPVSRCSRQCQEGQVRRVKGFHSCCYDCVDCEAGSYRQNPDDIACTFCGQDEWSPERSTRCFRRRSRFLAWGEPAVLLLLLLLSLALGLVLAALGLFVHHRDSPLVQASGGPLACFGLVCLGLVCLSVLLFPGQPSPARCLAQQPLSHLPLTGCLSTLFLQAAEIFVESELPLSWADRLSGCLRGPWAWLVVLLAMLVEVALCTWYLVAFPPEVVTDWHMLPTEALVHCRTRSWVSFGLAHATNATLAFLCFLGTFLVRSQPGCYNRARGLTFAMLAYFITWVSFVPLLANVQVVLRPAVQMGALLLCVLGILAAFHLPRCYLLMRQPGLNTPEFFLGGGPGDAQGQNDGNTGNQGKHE
Description: Fluo-4 calcium assay, HEK293T/G16gust44 cells transiently transfected with T1R2 and T1R3. In kind it is cell-based.
Text: as §1, §2, §3

A further assay concerns the target T3, T1R3 monomer (Homo sapiens, UniProt Q7RTX0).
T3 construct: expressed in transfected cells; host or cells: HEK293T cells stably expressing G16gust44
T3 sequence (Q7RTX0 21-852): T2 sequence (Q7RTX0 21-852)
The experiment in a line: Fluo-4 calcium assay, HEK293T/G16gust44 cells transiently transfected with T1R3 monomer. Type of assay: cell-based. The note with it: 50 μM perillartine, mean of six replicates.
Text: as §1, §2, §3

In assay [2] the test system is mock transfected cells expressing only the G16gust44 chimeric G-protein. Description: Fluo-4 calcium assay, mock transfected cells expressing only G16gust44 (negative control cells). Type of assay: cell-based, human. The note with it: 50 μM perillartine, mean of six replicates.
Text: as §2

Assay [3] concerns the target T1, T1R2 monomer. Description: Calcium flux assay (FLIPR), clonal cell lines stably expressing T1R2 and G16gust44. The conditions noted are these: 50 μM perillartine. In kind it is cell-based. The method, then: as §1
A human T1R2/pcDNA4-Zeocin construct was linearized by digesting 5 ug with Pvu II and then purified using the Wizard DNA Clean-Up System (Promega). The DNA was transfected using the Lipofectamine 2000 reagent into cells that already stably express the G16gust44 G-protein (formed as described in WO 2004/055048).
(§4) For results, see table below. The signal average of the experiment is given, as well as the standard deviation (STD) in RFU. Two clones were analysed. Non-transfected cells expressing G16gust44 only serve as a general negative control.

The subject of assay [4] is cells expressing G16gust44 only. Description: Calcium flux assay (FLIPR), non-transfected cells expressing G16gust44 only. In kind it is cell-based. The note with it: 50 μM perillartine. As for the experimental part:
as §4
(In general: A change in cytosolic calcium serves as a functional read-out for many receptors and channels.)

Where [5] appears, read: 50 μM perillartine, mean of six replicates.

Residues, ends and D or L forms follow the SMILES beside them.

Turning to `N[C@H](Cc1c[nH]c2ccccc12)C(=O)O` [D-tryptophan], the “calcium signal compared with negative controls (mock transfected cells)” value on T1R2 monomer [1] is reported as “not significantly above the signals observed for the negative controls”. In addition, the calcium signal intensity entry on T1R2/T1R3 dimer is given as “strong signals comparable to the signal intensity of perillartine”.
The matching figures for `COC(=O)[C@H](Cc1ccccc1)NC(=O)[C@@H](N)CC(=O)O` [aspartame] (H-Asp-Phe-OMe): “not significantly above the signals observed for the negative controls” and “strong signals comparable to the signal intensity of perillartine”.
Consider `C=C(C)[C@@H]1CC=C(/C=N/O)CC1` [perillartine], for which the “SIGNAL AVERAGE (net increase in fluorescence over baseline)” value at T1R2 monomer [1] (setting [5]) is listed as 944.9 RFU; at T1R3 monomer it was 165.6 RFU; on T1R2/T1R3 dimer (setting [5]), 1279.6 RFU; in assay [2] it was 353.5 RFU. Moreover, the values for the Signal average (at T1R2 monomer [3] (T1R2/G16gust44 CLONE 2); on T1R2 monomer [3] (T1R2/G16gust44 CLONE 4); in assay [4]) were 4336.25 RFU, 5288.47 RFU and 368.71 RFU, respectively. Further, the “perillartine-dependent signal relative to negative control cells expressing only G16gust44” value on T1R2 monomer [3] (clonal cell lines stably expressing T1R2 monomer) is reported as “at least 10 fold”.
With `C=C1C[C@@]23CC[C@H]4[C@@](C)(CCC[C@@]4(C)C(=O)O[C@@H]4O[C@H](CO)[C@@H](O)[C@H](O)[C@H]4O)[C@@H]2CC[C@]1(O[C@@H]1O[C@H](CO)[C@@H](O)[C@H](O)[C@H]1O[C@@H]1O[C@H](CO)[C@@H](O)[C@H](O)[C@H]1O)C3` [stevioside], the “calcium signal compared with negative controls (mock transfected cells)” value at T1R2 monomer [1] is listed as “not significantly above the signals observed for the negative controls”. The calcium signal intensity result on T1R2/T1R3 dimer is reported as “strong signals comparable to the signal intensity of perillartine”.
The matching figures for `OC[C@H]1O[C@H](O[C@]2(CCl)O[C@H](CCl)[C@@H](O)[C@@H]2O)[C@H](O)[C@@H](O)[C@H]1Cl` [sucralose]: “not significantly above the signals observed for the negative controls” and “strong signals comparable to the signal intensity of perillartine”.

These data come from US8124360B2, “Use of a T1R2 nucleic acid sequence to identify tastants” (Givaudan S.A., priority 2006, dated 2012).
